Test results from PMC6001238, “Iterative Chemical Engineering of Vancomycin Leads to Novel Vancomycin Analogs With a High in Vitro Therapeutic Index” (Frontiers in Microbiology, 2018).
Values after ≈ are worked out from the molar mass of the structure shown.

How the values were obtained:
E. faecalis VRE 6 = assay: MIC, broth microdilution, vancomycin-resistant E. faecalis VRE 6 (VanA); format: cell-based, Enterococcus faecalis; conditions: for MIC: Enterococcus faecalis VRE 6 (vancomycin-resistant), read-out: MIC; for MIC-fold improvement vs. vancomycin: VRE 6, ratio of MIC of vancomycin and MIC of analogue
Experimental: (§1) The minimum inhibitory concentration (MIC) was determined using the broth microdilution method according to the antimicrobial susceptibility testing standards of the clinical and laboratory standards institute ([Clinical and Laboratory Standards Institute [CLSI], 2012]). Ultrapure water and non-inoculated broth were used as controls. In one case, a final concentration of 10 μM vancomycin was included with the vancomycin analog or control antibiotic.

[1] = tested on: human cervix carcinoma (HeLa) cells; assay: Cytostatic activity, HeLa cell proliferation; format: cell-based; conditions: mean ± SD of three experiments; highest concentration tested 250 µM; 4 days; read-out: Toxicity (IC50) HeLa
Experimental: (§2) Murine leukemia (L1210), human T-lymphocyte (CEM) and the human cervix carcinoma (HeLa) cell line were suspended at 300,000–500,000 cells/mL of culture medium, and 100 μL of a cell suspension was added to 100 μL of an appropriate dilution of the test compounds in wells of 96-well microtiter plates. After incubation at 37°C for 2 (L1210), 3 (CEM), or 4 (HeLa) days, the cell number was determined using a Coulter counter. The IC50 was defined per cell type as the compound concentration required to inhibit cell proliferation by 50% compared to the negative control ([Glowacka et al., 2017]).

S. aureus VRSA = assay: MIC, broth microdilution, vancomycin-resistant S. aureus (VRSA); format: cell-based, Staphylococcus aureus; conditions: for MIC: Staphylococcus aureus VRSA, read-out: MIC; for MIC-fold improvement vs. vancomycin: VRSA, ratio of MIC of vancomycin and MIC of analogue
Experimental: as §1

E. faecalis VSE 1 = assay: MIC, broth microdilution, vancomycin-sensitive E. faecalis (VSE 1); format: cell-based, Enterococcus faecalis; conditions: for MIC: Enterococcus faecalis VSE 1 (vancomycin-sensitive), read-out: MIC; for MIC-fold improvement vs. vancomycin: VSE 1, ratio of MIC of vancomycin and MIC of analogue
Experimental: as §1

MRSA KS89 = assay: MIC, broth microdilution, MRSA KS89; format: cell-based, Staphylococcus aureus; conditions: for MIC-fold improvement vs. vancomycin: MRSA KS8, ratio of MIC of vancomycin and MIC of analogue; for MIC: Staphylococcus aureus MRSA KS8, read-out: MIC
Experimental: as §1

MRSA KS1 = assay: MIC, broth microdilution, MRSA KS1; format: cell-based, Staphylococcus aureus; conditions: for MIC-fold improvement vs. vancomycin: MRSA KS1, ratio of MIC of vancomycin and MIC of analogue; for MIC: Staphylococcus aureus MRSA KS1, read-out: MIC
Experimental: as §1

E. faecalis VRE 53 = assay: MIC, broth microdilution, vancomycin-resistant E. faecalis VRE 53 (VanA); format: cell-based, Enterococcus faecalis; conditions: for MIC: Enterococcus faecalis VRE 53 (vancomycin-resistant), read-out: MIC; for MIC-fold improvement vs. vancomycin: VRE 53, ratio of MIC of vancomycin and MIC of analogue
Experimental: as §1

[2] = tested on: human T-lymphocyte (CEM) cells; assay: Cytostatic activity, CEM cell proliferation; format: cell-based; conditions: mean ± SD of three experiments; highest concentration tested 250 µM; 3 days; read-out: Toxicity (IC50) CEM
Experimental: as §2

S. aureus VISA/HIP5827 = assay: MIC, broth microdilution, vancomycin-intermediate S. aureus VISA HIP5827; format: cell-based, Staphylococcus aureus; conditions: for MIC: Staphylococcus aureus VISA/HIP5827, read-out: MIC; for MIC-fold improvement vs. vancomycin: VISA/HIP5827, ratio of MIC of vancomycin and MIC of analogue
Experimental: as §1

[3] = tested on: Murine leukemia (L1210) cells; assay: Cytostatic activity, L1210 cell proliferation; format: cell-based; conditions: mean ± SD of three experiments; highest concentration tested 250 µM; 2 days; read-out: Toxicity (IC50) L1210
Experimental: as §2

[4] = tested on: S. aureus VSSA (ATCC 6538); assay: MIC, broth microdilution, vancomycin-sensitive S. aureus (VSSA/MSSA, ATCC 6538); format: cell-based, Staphylococcus aureus; conditions: for MIC: Staphylococcus aureus VSSA, read-out: MIC; for MIC-fold improvement vs. vancomycin: VSSA, ratio of MIC of vancomycin and MIC of analogue
Experimental: as §1

E. faecalis VRE 29 = assay: MIC, broth microdilution, vancomycin-resistant E. faecalis VRE 29 (VanA); format: cell-based, Enterococcus faecalis; conditions: for MIC: Enterococcus faecalis VRE 29 (vancomycin-resistant), read-out: MIC; for MIC-fold improvement vs. vancomycin: VRE 29, ratio of MIC of vancomycin and MIC of analogue
Experimental: as §1

[5] = tested on: L1210, CEM and HeLa cell lines; assay: Cytostatic activity, average or summary over L1210, CEM and HeLa; format: cell-based; conditions: average of L1210, CEM and HeLa; read-out: Toxicity (IC50) Average
Experimental: as §2

E. faecalis VRE 37 = assay: MIC, broth microdilution, vancomycin-resistant E. faecalis VRE 37 (VanA); format: cell-based, Enterococcus faecalis; conditions: for MIC: Enterococcus faecalis VRE 37 (vancomycin-resistant), read-out: MIC; for MIC-fold improvement vs. vancomycin: VRE 37, ratio of MIC of vancomycin and MIC of analogue
Experimental: as §1

MRSA KS6 = assay: MIC, broth microdilution, MRSA KS6; format: cell-based, Staphylococcus aureus; conditions: for MIC-fold improvement vs. vancomycin: MRSA KS6, ratio of MIC of vancomycin and MIC of analogue; for MIC: Staphylococcus aureus MRSA KS6, read-out: MIC
Experimental: as §1

MRSA KS2 = assay: MIC, broth microdilution, MRSA KS2; format: cell-based, Staphylococcus aureus; conditions: for MIC-fold improvement vs. vancomycin: MRSA KS2, ratio of MIC of vancomycin and MIC of analogue; for MIC: Staphylococcus aureus MRSA KS2, read-out: MIC
Experimental: as §1

| Structure (SMILES) | MIC (E. faecalis VRE 6) [µM] | MIC-fold improvement vs. vancomycin (E. faecalis VRE 6) | IC50 [1] [µM] | MIC (S. aureus VRSA) [µM] | MIC-fold improvement vs. vancomycin (S. aureus VRSA) | MIC (E. faecalis VSE 1) [µM] | MIC-fold improvement vs. vancomycin (E. faecalis VSE 1) | MIC-fold improvement vs. vancomycin (MRSA KS89) | MIC (MRSA KS89) [µM] | MIC-fold improvement vs. vancomycin (MRSA KS1) | MIC (MRSA KS1) [µM] | MIC (E. faecalis VRE 53) [µM] | IC50 [2] [µM] | MIC (S. aureus VISA/HIP5827) [µM] | MIC-fold improvement vs. vancomycin (S. aureus VISA/HIP5827) | IC50 [3] [µM] | MIC [4] [µM] | MIC-fold improvement vs. vancomycin [4] | MIC (E. faecalis VRE 29) [µM] | IC50 [5] [µM] | also measured |
| --- | --- | --- | --- | --- | --- | --- | --- | --- | --- | --- | --- | --- | --- | --- | --- | --- | --- | --- | --- | --- | --- |
| CN[C@H](CC(C)C)C(=O)N[C@H]1C(=O)N[C@@H](CC(N)=O)C(=O)N[C@H]2C(=O)N[C@H]3C(=O)N[C@H](C(=O)N[C@H](C(=O)NCC(=O)Nc4ccc(OC)cc4)c4cc(O)cc(O)c4-c4cc3ccc4O)[C@H](O)c3ccc(c(Cl)c3)Oc3cc2cc(c3O[C@@H]2O[C@H](CO)[C@@H](O)[C@H](O)[C@H]2O[C@H]2C[C@](C)(N)[C@H](O)[C@H](C)O2)Oc2ccc(cc2Cl)[C@H]1O [Vanc-5] | 6.25 (≈ 10.1 µg/mL) | 32 | > 250 | 12.5 (≈ 20.1 µg/mL) | 8 | 0.78 (≈ 1.26 µg/mL) | 2 | 1 | 0.78 (≈ 1.26 µg/mL) | 1 | 0.78 (≈ 1.26 µg/mL) | 12.5 (≈ 20.1 µg/mL) | > 250 | 0.39 (≈ 0.628 µg/mL) | 16 | > 250 | 0.39 (≈ 0.628 µg/mL) | 2 | 12.5 (≈ 20.1 µg/mL) | > 250 | MIC-fold improvement vs. vancomycin (E. faecalis VRE 53): 32; MIC-fold improvement vs. vancomycin (E. faecalis VRE 29): 32; MIC (E. faecalis VRE 37): 12.5 µM (≈ 20.1 µg/mL); MIC-fold improvement vs. vancomycin (E. faecalis VRE 37): 64; MIC-fold improvement vs. vancomycin (MRSA KS6): 1; MIC (MRSA KS6): 0.78 µM (≈ 1.26 µg/mL); MIC-fold improvement vs. vancomycin (MRSA KS2): 2; MIC (MRSA KS2): 0.39 µM (≈ 0.628 µg/mL) |
| CN[C@H](CC(C)C)C(=O)N[C@H]1C(=O)N[C@@H](CC(N)=O)C(=O)N[C@H]2C(=O)N[C@H]3C(=O)N[C@H](C(=O)N[C@H](C(=O)NCC(=O)Nc4ccc(Cl)cc4)c4cc(O)cc(O)c4-c4cc3ccc4O)[C@H](O)c3ccc(c(Cl)c3)Oc3cc2cc(c3O[C@@H]2O[C@H](CO)[C@@H](O)[C@H](O)[C@H]2O[C@H]2C[C@](C)(N)[C@H](O)[C@H](C)O2)Oc2ccc(cc2Cl)[C@H]1O [Vanc-6] | 3.13 (≈ 5.06 µg/mL) | 64 | 91 ± 33 | 3.13 (≈ 5.06 µg/mL) | 32 | 0.39 (≈ 0.63 µg/mL) | 4 | 2 | 0.39 (≈ 0.63 µg/mL) | 2 | 0.39 (≈ 0.63 µg/mL) | 12.5 (≈ 20.2 µg/mL) | 159 ± 13 | 0.39 (≈ 0.63 µg/mL) | 16 | > 250 | 0.39 (≈ 0.63 µg/mL) | 2 | 6.25 (≈ 10.1 µg/mL) | 167 | MIC (E. faecalis VRE 37): 12.5 µM (≈ 20.2 µg/mL); MIC-fold improvement vs. vancomycin (E. faecalis VRE 37): 64; MIC-fold improvement vs. vancomycin (MRSA KS6): 2; MIC (MRSA KS6): 0.39 µM (≈ 0.63 µg/mL); MIC-fold improvement vs. vancomycin (MRSA KS2): 2; MIC (MRSA KS2): 0.39 µM (≈ 0.63 µg/mL) |
| CN[C@H](CC(C)C)C(=O)N[C@H]1C(=O)N[C@@H](CC(N)=O)C(=O)N[C@H]2C(=O)N[C@H]3C(=O)N[C@H](C(=O)N[C@H](C(=O)NCC(=O)Nc4ccc(OC)c(OC)c4)c4cc(O)cc(O)c4-c4cc3ccc4O)[C@H](O)c3ccc(c(Cl)c3)Oc3cc2cc(c3O[C@@H]2O[C@H](CO)[C@@H](O)[C@H](O)[C@H]2O[C@H]2C[C@](C)(N)[C@H](O)[C@H](C)O2)Oc2ccc(cc2Cl)[C@H]1O [Vanc-7] | 12.5 (≈ 20.5 µg/mL) | 16 | > 250 | 12.5 (≈ 20.5 µg/mL) | 8 | 0.78 (≈ 1.28 µg/mL) | 2 | 1 | 0.78 (≈ 1.28 µg/mL) | 1 | 0.78 (≈ 1.28 µg/mL) | 12.5 (≈ 20.5 µg/mL) | > 250 | 0.78 (≈ 1.28 µg/mL) | 8 | > 250 | 0.78 (≈ 1.28 µg/mL) | 1 | 12.5 (≈ 20.5 µg/mL) | > 250 | MIC-fold improvement vs. vancomycin (E. faecalis VRE 53): 32; MIC-fold improvement vs. vancomycin (E. faecalis VRE 29): 32; MIC (E. faecalis VRE 37): 12.5 µM (≈ 20.5 µg/mL); MIC-fold improvement vs. vancomycin (E. faecalis VRE 37): 64; MIC-fold improvement vs. vancomycin (MRSA KS6): 1; MIC (MRSA KS6): 0.78 µM (≈ 1.28 µg/mL); MIC-fold improvement vs. vancomycin (MRSA KS2): 2; MIC (MRSA KS2): 0.39 µM (≈ 0.64 µg/mL) |
| CN[C@H](CC(C)C)C(=O)N[C@H]1C(=O)N[C@@H](CC(N)=O)C(=O)N[C@H]2C(=O)N[C@H]3C(=O)N[C@H](C(=O)N[C@H](C(=O)NCC(=O)Nc4ccc(N5CCOCC5)cc4)c4cc(O)cc(O)c4-c4cc3ccc4O)[C@H](O)c3ccc(c(Cl)c3)Oc3cc2cc(c3O[C@@H]2O[C@H](CO)[C@@H](O)[C@H](O)[C@H]2O[C@H]2C[C@](C)(N)[C@H](O)[C@H](C)O2)Oc2ccc(cc2Cl)[C@H]1O [Vanc-8] | 12.5 (≈ 20.8 µg/mL) | 16 | 107 ± 25 | 25 (≈ 41.7 µg/mL) | 4 | 0.78 (≈ 1.3 µg/mL) | 2 | 1 | 0.78 (≈ 1.3 µg/mL) | 1 | 0.78 (≈ 1.3 µg/mL) | 12.5 (≈ 20.8 µg/mL) | ≥ 250 | 1.56 (≈ 2.6 µg/mL) | 4 | > 250 | 1.56 (≈ 2.6 µg/mL) | 0.5 | 25 (≈ 41.7 µg/mL) | 202 | MIC-fold improvement vs. vancomycin (E. faecalis VRE 53): 32; MIC-fold improvement vs. vancomycin (E. faecalis VRE 29): 16; MIC (E. faecalis VRE 37): 25 µM (≈ 41.7 µg/mL); MIC-fold improvement vs. vancomycin (MRSA KS6): 0.5; MIC (MRSA KS6): 1.56 µM (≈ 2.6 µg/mL); MIC-fold improvement vs. vancomycin (MRSA KS2): 1; MIC (MRSA KS2): 0.78 µM (≈ 1.3 µg/mL) |
